Test results published in US12655116B2, “Substituted isophthalic acid diamides” (Bayer Aktiengesellschaft, priority 2020, dated 2026).

Experiments:
[1] = tested on: POLCO; experiment: Pre-emergence herbicidal action against POLCO; assay type: in vivo, Polygonum convolvulus; settings: dosage 80 g/ha
Outline: (§1)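 Pre-emergence soil-surface spray of formulated compound (WP or EC; 600 to 800 l/ha; 0.2% wetting agent) over seeds sown in sandy loam. After 3 weeks under greenhouse conditions, damage is estimated visually in percent against untreated plants.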

[2] = tested on: ABUTH; experiment: Pre-emergence herbicidal action against ABUTH; assay type: in vivo, Abutilon theophrasti
Outline: as §1

[3] = tested on: PHBPU; experiment: Post-emergence herbicidal action against PHBPU; assay type: in vivo, Pharbitis purpurea
Outline: (§2)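 Greenhouse plants in sandy loam were sprayed at the one-leaf stage, 2 to 3 weeks after sowing, with WP or EC formulations as aqueous suspension or emulsion (600 to 800 l/ha water, 0.2% wetting agent). Visual damage was scored about 3 weeks later versus untreated controls, 0% = like control, 100% = dead.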

[4] = tested on: DIGSA; experiment: Post-emergence herbicidal action against DIGSA; assay type: in vivo, Digitaria sanguinalis
Outline: as §2

[5] = tested on: VERPE; experiment: Pre-emergence herbicidal action against VERPE; assay type: in vivo, Veronica persica; settings: dosage 80 g/ha
Outline: as §1

[6] = tested on: ABUTH; experiment: Post-emergence herbicidal action against ABUTH; assay type: in vivo, Abutilon theophrasti; settings: visual assessment about 3 weeks after treatment vs untreated controls
Outline: as §2

[7] = tested on: SETVI; experiment: Post-emergence herbicidal action against SETVI; assay type: in vivo, Setaria viridis
Outline: as §2

[8] = tested on: MATIN; experiment: Pre-emergence herbicidal action against MATIN; assay type: in vivo, Matricaria inodora
Outline: as §1

[9] = tested on: VIOTR; experiment: Post-emergence herbicidal action against VIOTR; assay type: in vivo, Viola tricolor
Outline: as §2

[10] = tested on: DIGSA; experiment: Pre-emergence herbicidal action against DIGSA; assay type: in vivo, Digitaria sanguinalis
Outline: as §1

[11] = tested on: VERPE; experiment: Post-emergence herbicidal action against VERPE; assay type: in vivo, Veronica persica; settings: 20 g/ha
Outline: as §2

[12] = tested on: ECHCG; experiment: Post-emergence herbicidal action against ECHCG; assay type: in vivo, Echinochloa crus-galli
Outline: as §2

[13] = tested on: LOLRI; experiment: Pre-emergence herbicidal action against LOLRI; assay type: in vivo, Lolium rigidum; settings: 80 g/ha
Outline: as §1

[14] = tested on: ALOMY; experiment: Post-emergence herbicidal action against ALOMY; assay type: in vivo, Alopecurus myosuroides; settings: visual assessment about 3 weeks after treatment vs untreated controls
Outline: as §2

[15] = tested on: VIOTR; experiment: Pre-emergence herbicidal action against VIOTR; assay type: in vivo, Viola tricolor; settings: dosage 80 g/ha
Outline: as §1

[16] = tested on: AMARE; experiment: Pre-emergence herbicidal action against AMARE; assay type: in vivo, Amaranthus retroflexus
Outline: as §1

[17] = tested on: ECHCG; experiment: Pre-emergence herbicidal action against ECHCG; assay type: in vivo, Echinochloa crus-galli
Outline: as §1

[18] = tested on: ALOMY; experiment: Pre-emergence herbicidal action against ALOMY; assay type: in vivo, Alopecurus myosuroides; settings: pre-emergence
Outline: as §1

[19] = tested on: AMARE; experiment: Post-emergence herbicidal action against AMARE; assay type: in vivo, Amaranthus retroflexus; settings: 20 g/ha, visual assessment about 3 weeks after treatment, 100% = plants have died, 0% = like control plants
Outline: as §2

[20] = tested on: SETVI; experiment: Pre-emergence herbicidal action against SETVI; assay type: in vivo, Setaria viridis; settings: dosage 80 g/ha
Outline: as §1

[21] = tested on: MATIN; experiment: Post-emergence herbicidal action against MATIN; assay type: in vivo, Matricaria inodora; settings: Tripleurospermum inodorum, 504 h, dosage 20 g/ha
Outline: as §2

[22] = tested on: PHBPU; experiment: Pre-emergence herbicidal action against PHBPU; assay type: in vivo, Pharbitis purpurea; settings: Ipomoea purpurea, 504 h, dosage 80 g/ha
Outline: as §1

[23] = tested on: AVEFA; experiment: Pre-emergence herbicidal action against AVEFA; assay type: in vivo, Avena fatua; settings: Avena fatua, 504 h, pre-emergence
Outline: as §1

[24] = 80 g/ha, scored visually after 3 weeks vs untreated controls (100% = plants have died, 0% = like control plants)

## Cc1c(C(=O)Nc2nnnn2C)ccc(C(F)F)c1C(=O)NCC1CC1 [Example 1-47]
[1]
  Pre-emergence action against POLCO in %: 100%
[2]; [24]
  Pre-emergence action against ABUTH (herbicidal activity): 100%
[2]; dosage 20 g/ha, scored visually after 3 weeks vs untreated controls, 100% = plants have died, 0% = like control plants
  Pre-emergence action against ABUTH (herbicidal activity in percent): 100%
[3]; dosage 5 g/ha
  Post-emergence action against PHBPU in %: 80%
[3]; dosage 20 g/ha
  Post-emergence action against PHBPU in %: 90%
[4]; 20 g/ha
  Post-emergence action against DIGSA: 90%
[5]
  Pre-emergence action against VERPE in %: 100%
[6]; dosage 20 g/ha
  Post-emergence action against ABUTH in %: 80%
[7]; dosage 20 g/ha
  Post-emergence action against SETVI in %: 80%
[8]; dosage 20 g/ha
  Pre-emergence action against MATIN in %: 80%
[8]; dosage 80 g/ha
  Pre-emergence action against MATIN in %: 100%
[9]; 20 g/ha
  Post-emergence action against VIOTR in %: 80%
[10]; dosage 20 g/ha
  Pre-emergence action against DIGSA in %: 100%
[10]; dosage 80 g/ha
  Pre-emergence action against DIGSA in %: 100%
[11]
  Post-emergence action against VERPE in %: 80%
[12]; dosage 5 g/ha
  Post-emergence action against ECHCG in %: 90%
[12]; dosage 20 g/ha
  Post-emergence action against ECHCG in %: 90%
[13]
  Pre-emergence action against LOLRI in %: 80%
[14]; dosage 5 g/ha
  Post-emergence action against ALOMY in %: 80%
[14]; dosage 20 g/ha
  Post-emergence action against ALOMY in %: 90%
[15]
  Pre-emergence action against VIOTR in %: 100%
[16]; 20 g/ha, scored visually after 3 weeks vs untreated controls, 100% = plants have died, 0% = like control plants
  Pre-emergence action against AMARE in %: 100%
[16]; [24]
  Pre-emergence action against AMARE in %: 100%
[17]; 80 g/ha
  Pre-emergence action against ECHCG in %: 100%
[18]; [24]
  Pre-emergence action against ALOMY (herbicidal activity): 90%
[19]
  Post-emergence action at 20 g/ha against AMARE in %: 90%
[20]
  Pre-emergence action against SETVI in %: 100%

## CNC(=O)c1c(Br)ccc(C(=O)Nc2nnnn2C)c1Cl [Example 1-177]
[2]; Abutilon theophrasti, 504 h, 80 g/ha, scored visually after 3 weeks vs untreated controls (100% = plants have died, 0% = like control plants)
  pest or weed control at 80 g/ha: 100%
[3]; Ipomoea purpurea, 504 h, dosage 20 g/ha
  pest or weed control at 20 g/ha: 80%
[4]; Digitaria sanguinalis, 504 h, 5 g/ha
  pest or weed control at 5 g/ha: 90%
[4]; Digitaria sanguinalis, 504 h, 20 g/ha
  pest or weed control at 20 g/ha: 90%
[5]; Veronica persica, 504 h
  pest or weed control at 80 g/ha: 100%
[6]; Abutilon theophrasti, 504 h, dosage 5 g/ha
  pest or weed control at 5 g/ha: 90%
[6]; Abutilon theophrasti, 504 h, dosage 20 g/ha
  pest or weed control at 20 g/ha: 90%
[7]; Setaria viridis, 504 h, dosage 5 g/ha
  pest or weed control at 5 g/ha: 90%
[7]; Setaria viridis, 504 h, dosage 20 g/ha
  pest or weed control at 20 g/ha: 90%
[8]; Tripleurospermum inodorum, 504 h, dosage 20 g/ha
  pest or weed control at 20 g/ha: 90%
[8]; Tripleurospermum inodorum, 504 h, dosage 80 g/ha
  pest or weed control at 80 g/ha: 100%
[9]; Viola tricolor, 504 h, 5 g/ha
  pest or weed control at 5 g/ha: 90%
[9]; Viola tricolor, 504 h, 20 g/ha
  pest or weed control at 20 g/ha: 90%
[10]; Digitaria sanguinalis, 504 h, dosage 20 g/ha
  pest or weed control at 20 g/ha: 100%
[10]; Digitaria sanguinalis, 504 h, dosage 80 g/ha
  pest or weed control at 80 g/ha: 100%
[11]; Veronica persica, 504 h
  pest or weed control at 20 g/ha: 80%
[12]; Echinochloa crus-galli, 504 h, dosage 20 g/ha
  pest or weed control at 20 g/ha: 90%
[13]; Lolium rigidum, 504 h
  pest or weed control at 80 g/ha: 90%
[14]; Alopecurus myosuroides, 504 h, dosage 20 g/ha
  pest or weed control at 20 g/ha: 90%
[21]
  pest or weed control at 20 g/ha: 90%
[15]; Viola tricolor, 504 h
  pest or weed control at 80 g/ha: 100%
[16]; Amaranthus retroflexus, 504 h, 20 g/ha, scored visually after 3 weeks vs untreated controls, 100% = plants have died, 0% = like control plants
  pest or weed control at 20 g/ha: 100%
[16]; Amaranthus retroflexus, 504 h, 80 g/ha, scored visually after 3 weeks vs untreated controls, 100% = plants have died, 0% = like control plants
  pest or weed control at 80 g/ha: 100%
[17]; Echinochloa crus-galli, 504 h, 20 g/ha
  pest or weed control at 20 g/ha: 80%
[17]; Echinochloa crus-galli, 504 h, 80 g/ha
  pest or weed control at 80 g/ha: 100%
[18]; Alopecurus myosuroides, 504 h, 80 g/ha, scored visually after 3 weeks vs untreated controls (100% = plants have died, 0% = like control plants)
  pest or weed control at 80 g/ha: 100%
[18]; Alopecurus myosuroides, 504 h, 20 g/ha, scored visually after 3 weeks, 100% = plants have died, 0% = like control plants
  pest or weed control at 20 g/ha: 80%
[19]; Amaranthus retroflexus, 504 h
  pest or weed control at 20 g/ha: 100%
[22]
  pest or weed control at 80 g/ha: 80%
[23]; 80 g/ha
  pest or weed control at 80 g/ha: 100%
[23]; 20 g/ha, scored visually after 3 weeks, 100% = plants have died, 0% = like control plants
  pest or weed control at 20 g/ha: 80%
[20]; Setaria viridis, 504 h
  pest or weed control at 80 g/ha: 100%
